Source: PubChem BioAssay (NCI)
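Following 48 hours of exposure in 96-well plates, responses at five concentrations were used to interpolate endpoints linearly. TGI is the concentration that stops growth completely.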

Legend:
Assay in all cases: growth of human tumour cells (NCI), 48 h
K-562 leukemia = tested on: K-562 leukemia
RPMI-8226 leukemia = tested on: RPMI-8226 leukemia
SN12C renal = tested on: SN12C renal
MDA-MB-231 breast = tested on: MDA-MB-231 breast
U251 CNS = tested on: U251 CNS
DMS 114 small cell lung = tested on: DMS 114 small cell lung
CAKI-1 renal = tested on: CAKI-1 renal
SK-MEL-2 melanoma = tested on: SK-MEL-2 melanoma
MOLT-4 leukemia = tested on: MOLT-4 leukemia
NCI-H226 lung = tested on: NCI-H226 lung
HCT-116 colon = tested on: HCT-116 colon
LOX IMVI melanoma = tested on: LOX IMVI melanoma
SNB-19 CNS = tested on: SNB-19 CNS
SR leukemia = tested on: SR leukemia
IGROV1 ovarian = tested on: IGROV1 ovarian
NCI-H522 lung = tested on: NCI-H522 lung
A549 NSCLC = tested on: A549 NSCLC
HOP-62 NSCLC = tested on: HOP-62 NSCLC
HOP-92 NSCLC = tested on: HOP-92 NSCLC
UACC-62 melanoma = tested on: UACC-62 melanoma
DLD-1 colon = tested on: DLD-1 colon
SNB-75 CNS = tested on: SNB-75 CNS
OVCAR-8 ovarian = tested on: OVCAR-8 ovarian
SF-539 CNS = tested on: SF-539 CNS
KM12 colon = tested on: KM12 colon
EKVX NSCLC = tested on: EKVX NSCLC
TK-10 renal = tested on: TK-10 renal
SK-OV-3 ovarian = tested on: SK-OV-3 ovarian
OVCAR-5 ovarian = tested on: OVCAR-5 ovarian
MALME-3M melanoma = tested on: MALME-3M melanoma
HCC-2998 colon = tested on: HCC-2998 colon
HT29 colon = tested on: HT29 colon
COLO 205 colon = tested on: COLO 205 colon
786-0 renal = tested on: 786-0 renal
MCF7 breast = tested on: MCF7 breast
LXFL 529 NSCLC = tested on: LXFL 529 NSCLC
ACHN renal = tested on: ACHN renal
HL-60(TB) leukemia = tested on: HL-60(TB) leukemia
SW-620 colon = tested on: SW-620 colon
HCT-15 colon = tested on: HCT-15 colon
KM20L2 colon = tested on: KM20L2 colon
OVCAR-4 ovarian = tested on: OVCAR-4 ovarian
MDA-MB-435 = tested on: MDA-MB-435
DU-145 prostate = tested on: DU-145 prostate
RXF 393 renal = tested on: RXF 393 renal
NCI-H23 lung = tested on: NCI-H23 lung
M19-MEL melanoma = tested on: M19-MEL melanoma
A498 renal = tested on: A498 renal
NCI/ADR-RES ovarian = tested on: NCI/ADR-RES ovarian
MDA-N = tested on: MDA-N
HS 578T breast = tested on: HS 578T breast
T-47D breast = tested on: T-47D breast
XF 498 CNS = tested on: XF 498 CNS
UO-31 renal = tested on: UO-31 renal
BT-549 breast = tested on: BT-549 breast
SNB-78 CNS = tested on: SNB-78 CNS
CCRF-CEM leukemia = tested on: CCRF-CEM leukemia
OVCAR-3 ovarian = tested on: OVCAR-3 ovarian
NCI-H460 lung = tested on: NCI-H460 lung
UACC-257 melanoma = tested on: UACC-257 melanoma
SK-MEL-28 melanoma = tested on: SK-MEL-28 melanoma
SK-MEL-5 melanoma = tested on: SK-MEL-5 melanoma
SF-295 CNS = tested on: SF-295 CNS
PC-3 prostate = tested on: PC-3 prostate
M14 melanoma = tested on: M14 melanoma
SF-268 CNS = tested on: SF-268 CNS
DMS 273 small cell lung = tested on: DMS 273 small cell lung

In the case of C[C@]12C=CC(=O)C=C1[C@@H](F)C[C@H]1[C@@H]3CC[C@](O)(C(=O)CO)[C@@]3(C)C[C@H](O)[C@@]12F, the TGI (K-562 leukemia) was > 100 µM, the TGI (RPMI-8226 leukemia) was > 100 µM and the TGI (SN12C renal) was > 100 µM. The TGI (MDA-MB-231 breast) was > 100 µM, the TGI (U251 CNS) was > 100 µM and the TGI (DMS 114 small cell lung) was > 100 µM. The TGI (CAKI-1 renal) was > 100 µM, the TGI (SK-MEL-2 melanoma) was > 100 µM and the TGI (MOLT-4 leukemia) was > 100 µM. For the same compound, the TGI (NCI-H226 lung) was > 100 µM, the TGI (HCT-116 colon) was > 100 µM and the TGI (LOX IMVI melanoma) was > 100 µM. The TGI (SNB-19 CNS) was > 100 µM, the TGI (SR leukemia) was > 100 µM and the TGI (IGROV1 ovarian) was > 100 µM. The TGI (NCI-H522 lung) was > 100 µM, the TGI (A549 NSCLC) was > 100 µM and the TGI (HOP-62 NSCLC) was > 100 µM. For the same compound, the TGI (HOP-92 NSCLC) was > 100 µM, the TGI (UACC-62 melanoma) was > 100 µM and the TGI (DLD-1 colon) was > 100 µM. For the same compound, the TGI (SNB-75 CNS) was > 100 µM, the TGI (OVCAR-8 ovarian) was > 100 µM and the TGI (SF-539 CNS) was > 100 µM. For the same compound, the TGI (KM12 colon) was > 100 µM, the TGI (EKVX NSCLC) was > 100 µM and the TGI (TK-10 renal) was > 100 µM. For the same compound, the TGI (SK-OV-3 ovarian) was > 100 µM, the TGI (OVCAR-5 ovarian) was > 100 µM and the TGI (MALME-3M melanoma) was > 100 µM. For the same compound, the TGI (HCC-2998 colon) was > 100 µM, the TGI (HT29 colon) was > 100 µM and the TGI (COLO 205 colon) was > 100 µM. The TGI (786-0 renal) was > 100 µM, the TGI (MCF7 breast) was > 100 µM and the TGI (LXFL 529 NSCLC) was > 100 µM. For the same compound, the TGI (ACHN renal) was > 100 µM, the TGI (HL-60(TB) leukemia) was > 100 µM and the TGI (SW-620 colon) was > 100 µM. For the same compound, the TGI (HCT-15 colon) was > 100 µM, the TGI (KM20L2 colon) was > 100 µM and the TGI (OVCAR-4 ovarian) was > 100 µM. The TGI (MDA-MB-435) was > 100 µM, the TGI (DU-145 prostate) was > 100 µM and the TGI (RXF 393 renal) was > 100 µM. For the same compound, the TGI (NCI-H23 lung) was > 100 µM, the TGI (M19-MEL melanoma) was > 100 µM and the TGI (A498 renal) was > 100 µM. The TGI (NCI/ADR-RES ovarian) was > 100 µM, the TGI (MDA-N) was > 100 µM and the TGI (HS 578T breast) was > 100 µM. For the same compound, the TGI (T-47D breast) was > 100 µM, the TGI (XF 498 CNS) was > 100 µM and the TGI (UO-31 renal) was > 100 µM. The TGI (BT-549 breast) was > 100 µM, the TGI (SNB-78 CNS) was > 100 µM and the TGI (CCRF-CEM leukemia) was > 100 µM. For the same compound, the TGI (OVCAR-3 ovarian) was > 100 µM, the TGI (NCI-H460 lung) was > 100 µM and the TGI (UACC-257 melanoma) was > 100 µM. For the same compound, the TGI (SK-MEL-28 melanoma) was > 100 µM, the TGI (SK-MEL-5 melanoma) was > 100 µM and the TGI (SF-295 CNS) was > 100 µM. The TGI (PC-3 prostate) was > 100 µM, the TGI (M14 melanoma) was > 100 µM and the TGI (SF-268 CNS) was > 100 µM. The TGI (DMS 273 small cell lung) was > 100 µM.
COc1ccc2nccc(NCCCN3CCN(CCCNc4ccnc5ccc(OC)cc45)CC3)c2c1 was tested, and the TGI (K-562 leukemia) was 0.526 µM, the TGI (RPMI-8226 leukemia) was 1.46 µM and the TGI (SN12C renal) was 1.45 µM. The TGI (MDA-MB-231 breast) was 4 µM, the TGI (U251 CNS) was 1.51 µM and the TGI (DMS 114 small cell lung) was 1.91 µM. For the same compound, the TGI (CAKI-1 renal) was 15 µM, the TGI (SK-MEL-2 melanoma) was 7.99 µM and the TGI (MOLT-4 leukemia) was 1.16 µM. It also gave a TGI (NCI-H226 lung) of 1.37 µM, a TGI (HCT-116 colon) of 2.54 µM and a TGI (LOX IMVI melanoma) of 1.49 µM. The TGI (SNB-19 CNS) was 5.98 µM, the TGI (SR leukemia) was > 26.2 µM and the TGI (IGROV1 ovarian) was 3.69 µM. The TGI (NCI-H522 lung) was 0.633 µM, the TGI (A549 NSCLC) was 6.55 µM and the TGI (HOP-62 NSCLC) was 4.4 µM. The TGI (HOP-92 NSCLC) was 2.35 µM, the TGI (UACC-62 melanoma) was 2.08 µM and the TGI (DLD-1 colon) was 5.12 µM. It also gave a TGI (SNB-75 CNS) of 1.89 µM, a TGI (OVCAR-8 ovarian) of 2.85 µM and a TGI (SF-539 CNS) of 0.681 µM. For the same compound, the TGI (KM12 colon) was 1.79 µM, the TGI (EKVX NSCLC) was 7.93 µM and the TGI (TK-10 renal) was 22 µM. For the same compound, the TGI (SK-OV-3 ovarian) was 6.82 µM, the TGI (OVCAR-5 ovarian) was 4.74 µM and the TGI (MALME-3M melanoma) was 1.88 µM. For the same compound, the TGI (HCC-2998 colon) was 2.13 µM, the TGI (HT29 colon) was 1.67 µM and the TGI (COLO 205 colon) was 1.24 µM. It also gave a TGI (786-0 renal) of 8.99 µM, a TGI (MCF7 breast) of 1.37 µM and a TGI (LXFL 529 NSCLC) of 1.82 µM. The TGI (ACHN renal) was 11.4 µM, the TGI (SW-620 colon) was 1.04 µM and the TGI (HCT-15 colon) was 32.4 µM. It also gave a TGI (KM20L2 colon) of 3.37 µM, a TGI (OVCAR-4 ovarian) of 2.55 µM and a TGI (MDA-MB-435) of 1.65 µM. For the same compound, the TGI (DU-145 prostate) was 4.86 µM, the TGI (RXF 393 renal) was 3.69 µM and the TGI (NCI-H23 lung) was 2.12 µM. For the same compound, the TGI (M19-MEL melanoma) was 1.97 µM, the TGI (A498 renal) was 13.5 µM and the TGI (NCI/ADR-RES ovarian) was > 100 µM. It also gave a TGI (MDA-N) of 1.52 µM, a TGI (HS 578T breast) of 3.27 µM and a TGI (T-47D breast) of 4.65 µM. The TGI (XF 498 CNS) was 1.56 µM, the TGI (UO-31 renal) was 25.8 µM and the TGI (BT-549 breast) was 11.6 µM. The TGI (SNB-78 CNS) was 3.47 µM, the TGI (CCRF-CEM leukemia) was > 100 µM and the TGI (OVCAR-3 ovarian) was 7.73 µM. It also gave a TGI (NCI-H460 lung) of 1.77 µM, a TGI (UACC-257 melanoma) of 2.62 µM and a TGI (SK-MEL-28 melanoma) of 2.92 µM. For the same compound, the TGI (SK-MEL-5 melanoma) was 2.85 µM, the TGI (SF-295 CNS) was 5.16 µM and the TGI (PC-3 prostate) was 4.15 µM. The TGI (M14 melanoma) was 3.19 µM, the TGI (SF-268 CNS) was 1.79 µM and the TGI (DMS 273 small cell lung) was 1.67 µM.
